{"source": "patent US20250263376A1", "about": "“(E)-N-CINNAMOYLAMINOALKANOLS WITH MELANOGENESIS INHIBITORY ACTIVITY” (Uniwersytet Jagiellonski, priority 2024, published 2025)", "key": {"tyrosinase": {"test_system": "tyrosinase", "details": "cited from earlier work; for mechanism of tyrosinase inhibition: literature [6,7]"}, "S. typhimurium TA1535": {"test_system": "S. typhimurium TA1535", "test": "Ames microplate test, TA1535;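 further: bacteria exposed 90 min at 37 °C in exposure medium, then 48 h in indicator medium in 384-well plates, yellow (revertant) wells counted per condition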"}, "S. typhimurium TA98": {"test_system": "S. typhimurium TA98", "test": "Ames microplate test, TA98", "assay_type": "cell-based, Salmonella typhimurium", "method": "(§1) Bacteria were grown overnight in growth medium."}, "CHO-K1 cells": {"test_system": "CHO-K1 cells", "test": "Cytotoxicity (MTT) in CHO-K1 cells before the micronucleus test", "assay_type": "cell-based, Chinese hamster", "details": "24 hours", "method": "The assay was performed using a Chinese hamster ovary cell line (CHO-K1) purchased from the American Type Culture Collection (ATCC). The cells were cultured in F-12K medium with the addition of 10% fetal bovine serum (FBS) and antibiotics (streptomycin/penicillin) in an incubator at 37° C. and 5% CO2 concentration). Before the actual micronucleus test, a cytotoxicity assessment was performed to ensure that the actual test was performed only at safe concentrations. For this purpose, cells were transferred to 96-well plates and incubated with the tested compounds for 24 hours. After this time, the MTT test was performed and cell viability was assessed in comparison to the control group (cells cultured with DMSO at the same concentration as in the case of the tested samples)."}, "tyrosinase from mushroom [1]": {"biological_target": "T1, tyrosinase from mushroom (Agaricus bisporus, UniProt C7FF04)", "T1 sequence (C7FF04 2-392)": "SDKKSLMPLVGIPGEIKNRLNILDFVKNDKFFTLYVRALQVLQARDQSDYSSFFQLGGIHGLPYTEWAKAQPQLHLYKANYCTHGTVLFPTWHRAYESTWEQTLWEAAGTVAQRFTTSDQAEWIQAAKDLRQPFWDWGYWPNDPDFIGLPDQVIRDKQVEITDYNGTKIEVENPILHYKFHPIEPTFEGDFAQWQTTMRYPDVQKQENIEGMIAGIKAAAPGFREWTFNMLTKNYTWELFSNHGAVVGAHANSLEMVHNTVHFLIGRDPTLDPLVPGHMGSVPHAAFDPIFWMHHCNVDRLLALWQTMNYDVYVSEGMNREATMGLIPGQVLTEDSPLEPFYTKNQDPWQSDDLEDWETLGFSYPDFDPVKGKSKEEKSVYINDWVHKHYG", "T1 sequence (G1K3P4 entry or part of it, further chain)": "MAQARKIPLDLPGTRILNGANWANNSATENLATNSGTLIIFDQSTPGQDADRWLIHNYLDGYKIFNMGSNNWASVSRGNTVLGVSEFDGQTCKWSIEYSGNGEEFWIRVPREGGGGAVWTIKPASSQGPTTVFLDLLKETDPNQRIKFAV", "test": "Inhibition of commercial mushroom tyrosinase, substrate L-DOPA", "assay_type": "biochemical", "details": "500 μM; read-out: Tyrosinase inhibition with L-DOPA [%]", "method": "(§2) Studies on the Inhibition of the Activity of Commercial Tyrosinase from Mushroom (Sigma: T3824)\n(§3) The following substrates were used for the enzymatic reaction: L-tyrosine and L-3,4-dihyroxyphenylalanine (L-DOPA). Both substrates were used in independent experiments. According to the literature, the use of L-DOPA enables the assessment of tyrosinase diphenolase activity, and L-tyrosine—the tyrosinase monophenolase activity. The determinations were performed in 96-well plates, in each well there was placed: 170 μL or 127.5 μL of 50 mM phosphate buffer (pH=6.8) with tyrosinase (1U/well or 3U/well) and 10 μL of a solution of the tested compound in DMSO (the final concentration in the well was 500 μM, 250 μM or 125 μM). The negative control used 10 u L of pure solvent (DMSO). To initiate the reaction, an appropriate substrate was added: L-tyrosine (62.5 μL of solution in phosphate buffer) or L-DOPA (20 μL of solution in phosphate buffer). After a 25-minute incubation, the absorbance was measured at 475 nm using a microplate reader. The percentage of inhibition of tyrosinase activity was calculated using the formula: [(AC−AT)/[…], where AC—is the absorbance of the negative control, AT—is the absorbance of the sample containing the tested compound."}, "S. typhimurium TA1537": {"test_system": "S. typhimurium TA1537", "test": "Ames microplate test, TA1537", "assay_type": "cell-based, Salmonella typhimurium", "method": "as §1"}, "[2]": {"test": "Lipophilicity coefficient RM0 by reversed phase thin layer chromatography", "assay_type": "physicochemical", "details": "RP-18 TLC, methanol/phosphate buffer pH=7.4", "method": "Confirmation of the identity and purity of the obtained compounds consisted in the registration and interpretation of 1H NMR and 13C NMR spectra (the spectra were recorded using an ECZR 500 MHZ (JEOL) series FT-NMR spectrophotometer), as well as the registration and interpretation of LC-MS spectra (the spectra were recorded using Acquita UPLC system (Waters) coupled with a Waters TQD mass spectrometer). The melting point was measured using the open capillary method in the IA9300 device (Electrothermal). The lipophilicity coefficient RM0 was determined by reversed phase thin layer chromatography. In the study, aluminum plates 20×20 cm covered with modified silica gel RP-18 F254 (Merck) were used as the solid phase. The mobile phase consisted of solutions of methanol and 100 mM phosphate buffer (pH=7.4), characterized by a variable methanol content ranging from 95 to 65% (v/v). The tested compounds were dissolved in methanol to obtain solutions with a concentration of 1 mg/mL. Then, […] of the solutions prepared in this way were transferred to the starting line on aluminum plates, which were then placed in chromatographic chambers previously saturated with mobile phase vapors for at least 1 hour. All activities, including the development of chromatograms, were carried out at room temperature. After developing the chromatograms to approximately 1-2 cm from the end of the plate, the plates were dried and then the distance traveled by the tested compounds was visualized under UV light (λ=254 nm). The experiment was performed in duplicate for the specified conditions. For all samples, Rf was calculated according to the formula Rf=a/b, where a—the distance traveled by the tested compound, b—the distance traveled by the mobile phase. Then, the RM parameter was calculated for all samples according to the formula RM=log (1/Rf−1), obtaining a linear relationship between the RM values and the methanol concentration in the mobile phase. The log P coefficient was also calculated using the following computer programs: ACD/ChemSketch 2020.1.2 and ChemDraw 20.0.0.41."}, "E. coli WP2": {"test_system": "E. coli WP2", "test": "Ames microplate test, E. coli WP2", "experimental": "The study used the Ames microplate test (Ames MPF™ Penta 2 by Xenometrix, Allschwil, Switzerland). Growth medium, exposure medium, indicator medium, positive controls, hepatic microsomal fraction, NADP, glucose-6-phosphate, Salmonella typhimurium and Escherichia coli strains were components of the purchased experimental kit. Bacteria were grown overnight in growth medium. They were then exposed to the test compound at the appropriate concentration in exposure medium without or with the rat microsomal fraction S9 in 24-well plates for 90 min at 37° C. with shaking. Then, indicator medium was added to the wells and pipetted into 384-well plates, which were incubated for 48 hours at 37° C. without shaking. Results were assessed by counting the wells in which the medium turned yellow for each experimental condition."}, "tyrosinase from mushroom [3]": {"biological_target": "T1, tyrosinase from mushroom", "test": "Inhibition of commercial mushroom tyrosinase, substrate L-tyrosine", "assay_type": "biochemical", "details": "500 μM; read-out: Tyrosinase inhibition with L-tyrosine [%]", "method": "as §2, §3"}, "[4]": {"test_system": "B16-F10 murine melanoma cell line", "test": "Cytotoxicity (MTT) in B16-F10 murine melanoma cells", "assay_type": "cell-based", "details": "48 h", "method": "Cytotoxicity Assessment in the B16-F10 Murine Melanoma Cell Line (ATTC CRL-6745)—Preliminary Safety Assessment for Subsequent Studies\nIn order to determine safe doses of compounds for testing the inhibition of melanogenesis in a murine melanoma cell line, cytotoxicity tests were performed. Cytotoxicity was determined by the colorimetric method using MTT ([3-(4,5-dimethyl-2-thiazolyl)-2,5-diphenyl-2H-tetrazolium bromide, Sigma M5655). For this purpose, cells were transferred to 96-well plates in an amount of 5000/well. After 24 h of culture in an incubator in F10-Ham medium with 1% FBS, the tested compounds at various concentrations were added to the wells together with fresh medium. DMSO was added to the medium in a negative control. The MTT test was performed after further culture for 48 h. Then the medium was removed and the formed formazan crystals were dissolved in DMSO. The absorbance was measured at 570 nm in a plate reader and the result was compared to the control (DMSO), which was 100%. The percentage of viability was calculated using the formula: [AT/AC*100], where AT is the absorbance of the test sample, AC—absorbance of the control sample."}, "S. typhimurium TA100": {"test_system": "S. typhimurium TA100", "test": "Ames microplate test, TA100", "assay_type": "cell-based, Salmonella typhimurium"}, "[5]": {"details": "literature [7], read-out: IC50, tyrosinase inhibition"}}, "note": "Where two headings read alike, the source gives them in different places.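 Wherever Increase in the number of yellow wells compared to the reference level, E. coli WP2 is given: bacteria exposed to compound for 90 min at 37 °C in 24-well plates, then transferred with indicator medium to 384-well plates and incubated 48 h before yellow well counting.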"}
{"smiles": "O=C(O)C=Cc1ccc(Cl)cc1Cl", "note": "[2,4-dichlorocinnamic acid]", "values": [{"measurement": "mechanism of tyrosinase inhibition", "setting": "tyrosinase", "value": "reversible non-competitive mechanism"}, {"measurement": "IC50", "setting": "tyrosinase; [5]", "value": 295, "unit": "µM"}]}
{"smiles": "O=C(O)C=Cc1ccccc1Cl", "note": "[2-Chlorocinnamic acid]", "values": [{"measurement": "mechanism of tyrosinase inhibition", "setting": "tyrosinase", "value": "reversible non-competitive mechanism"}, {"measurement": "IC50", "setting": "tyrosinase; [5]", "value": 765, "unit": "µM"}]}
{"smiles": "COc1ccc(C=CC(=O)O)cc1", "note": "[4-methoxycinnamic acid]", "values": [{"measurement": "IC50", "setting": "tyrosinase; literature [6], read-out: IC50, tyrosinase diphenolase activity", "value": 420, "unit": "µM"}]}
{"smiles": "O=C(O)C=Cc1ccccc1", "note": "[Cinnamic acid]", "values": [{"measurement": "mechanism of tyrosinase inhibition", "setting": "tyrosinase", "value": "non-competitive inhibitor"}]}
{"smiles": "CCC(O)CNC(=O)/C=C/c1ccc(Cl)cc1", "note": "(stereo not drawn) [Compound A-67, (2E)-3-(4-chlorophenyl)-N-(2-hydroxybutyl)prop-2-enamide]", "values": [{"measurement": "Increase in the number of yellow wells compared to the reference level, TA1535", "setting": "S. typhimurium TA1535; 0.5 mM, + S9", "value": 0.27}, {"measurement": "Increase in the number of yellow wells compared to the reference level, TA1535", "setting": "S. typhimurium TA1535; 0.5 mM, without S9", "value": 0.30}, {"measurement": "Increase in the number of yellow wells compared to the reference level, TA1535", "setting": "S. typhimurium TA1535; 1.0 mM, + S9", "value": 0.54}, {"measurement": "Increase in the number of yellow wells compared to the reference level, TA1535", "setting": "S. typhimurium TA1535; 1.0 mM, without S9", "value": 0.45}, {"measurement": "Increase in the number of yellow wells compared to the reference level, TA1535", "setting": "S. typhimurium TA1535; 2.0 mM, + S9", "value": 0.13}, {"measurement": "Increase in the number of yellow wells compared to the reference level, TA1535", "setting": "S. typhimurium TA1535; 2.0 mM, without S9", "value": 1.04}, {"measurement": "Increase in the number of yellow wells compared to the reference level, TA98", "setting": "S. typhimurium TA98; 0.5 mM, + S9", "value": 0.31}, {"measurement": "Increase in the number of yellow wells compared to the reference level, TA98", "setting": "S. typhimurium TA98; 0.5 mM, without S9", "value": 0.27}, {"measurement": "Increase in the number of yellow wells compared to the reference level, TA98", "setting": "S. typhimurium TA98; 1.0 mM, + S9", "value": 0.94}, {"measurement": "Increase in the number of yellow wells compared to the reference level, TA98", "setting": "S. typhimurium TA98; 1.0 mM, without S9", "value": 1.07}, {"measurement": "Increase in the number of yellow wells compared to the reference level, TA98", "setting": "S. typhimurium TA98; 2.0 mM, + S9", "value": 1.04}, {"measurement": "Increase in the number of yellow wells compared to the reference level, TA98", "setting": "S. typhimurium TA98; 2.0 mM, without S9", "value": 1.07}, {"measurement": "% Viability [mean], CHO-K1", "setting": "CHO-K1 cells; 100 μM", "value": 96.0, "unit": "%"}, {"measurement": "% Viability [mean], CHO-K1", "setting": "CHO-K1 cells; 150 μM", "value": 90.3, "unit": "%"}, {"measurement": "% Viability [mean], CHO-K1", "setting": "CHO-K1 cells; 200 μM", "value": 84.0, "unit": "%"}, {"measurement": "inhibition at 500 µM", "setting": "tyrosinase from mushroom [1]", "value": "60.8 ± 1.99", "unit": "%"}, {"measurement": "Increase in the number of yellow wells compared to the reference level, TA1537", "setting": "S. typhimurium TA1537; 0.5 mM, + S9", "value": 1.00}, {"measurement": "Increase in the number of yellow wells compared to the reference level, TA1537", "setting": "S. typhimurium TA1537; 0.5 mM, without S9", "value": 0.00}, {"measurement": "Increase in the number of yellow wells compared to the reference level, TA1537", "setting": "S. typhimurium TA1537; 1.0 mM, + S9", "value": 1.33}, {"measurement": "Increase in the number of yellow wells compared to the reference level, TA1537", "setting": "S. typhimurium TA1537; 1.0 mM, without S9", "value": 0.18}, {"measurement": "Increase in the number of yellow wells compared to the reference level, TA1537", "setting": "S. typhimurium TA1537; 2.0 mM, + S9", "value": 0.00}, {"measurement": "Increase in the number of yellow wells compared to the reference level, TA1537", "setting": "S. typhimurium TA1537; 2.0 mM, without S9", "value": 0.82}, {"measurement": "RM0", "setting": "[2]", "value": 2.46}, {"measurement": "Increase in the number of yellow wells compared to the reference level, E. coli WP2", "setting": "E. coli WP2; 0.5 mM, + S9", "value": 0.83}, {"measurement": "Increase in the number of yellow wells compared to the reference level, E. coli WP2", "setting": "E. coli WP2; 0.5 mM, without S9", "value": 0.50}, {"measurement": "Increase in the number of yellow wells compared to the reference level, E. coli WP2", "setting": "E. coli WP2; 1.0 mM, + S9", "value": 0.42}, {"measurement": "Increase in the number of yellow wells compared to the reference level, E. coli WP2", "setting": "E. coli WP2; 1.0 mM, without S9", "value": 1.00}, {"measurement": "Increase in the number of yellow wells compared to the reference level, E. coli WP2", "setting": "E. coli WP2; 2.0 mM, + S9", "value": 1.42}, {"measurement": "Increase in the number of yellow wells compared to the reference level, E. coli WP2", "setting": "E. coli WP2; 2.0 mM, without S9", "value": 0.83}, {"measurement": "inhibition at 500 µM", "setting": "tyrosinase from mushroom [3]", "value": "79.2 ± 1.2", "unit": "%"}, {"measurement": "Cytotoxicity study in B16F10 cells, % viability", "setting": "[4]; 150 μM", "value": 73.6, "unit": "%"}, {"measurement": "Cytotoxicity study in B16F10 cells, % viability", "setting": "[4]; 200 μM", "value": 87.8, "unit": "%"}, {"measurement": "Cytotoxicity study in B16F10 cells, % viability", "setting": "[4]; 250 μM", "value": 84.4, "unit": "%"}, {"measurement": "Increase in the number of yellow wells compared to the reference level, TA100", "setting": "S. typhimurium TA100; 0.5 mM, + S9", "value": 0.78}, {"measurement": "Increase in the number of yellow wells compared to the reference level, TA100", "setting": "S. typhimurium TA100; 0.5 mM, without S9", "value": 1.53}, {"measurement": "Increase in the number of yellow wells compared to the reference level, TA100", "setting": "S. typhimurium TA100; 1.0 mM, + S9", "value": 0.64}, {"measurement": "Increase in the number of yellow wells compared to the reference level, TA100", "setting": "S. typhimurium TA100; 1.0 mM, without S9", "value": 0.93}, {"measurement": "Increase in the number of yellow wells compared to the reference level, TA100", "setting": "S. typhimurium TA100; 2.0 mM, + S9", "value": 0.31}, {"measurement": "Increase in the number of yellow wells compared to the reference level, TA100", "setting": "S. typhimurium TA100; 2.0 mM, without S9", "value": 0.80}]}
